Data as given in patent EP2526935A1, “Hydrazidomycins” (Oncotest GmbH, priority 2011, dated 2012).

Legend:
Type in all cases: cell-based
[1] = test system: MEXF 1341L; test: modified propidium iodide cytotoxicity assay; conditions: Homo sapiens, Melanoma
Source text: (§1) Antiproliferative and cytotoxic assays. A modified propidium iodide assay was used to determine the cytotoxic activity of compounds hydrazidomycin A, B, and C against 12 to 42 cell lines derived from solid human tumors. The test procedure has been as is known in the art. Cell lines tested were derived from patient tumors engrafted as a subcutaneously growing tumor in NMRI nu/nu mice, or obtained from the American Type Culture Collection, Rockville, MD, USA, National Cancer Institute, Bethesda, MD, USA, or Deutsche Sammlung von Mikroorganismen und Zellkulturen, Braunschweig. The IC50 was determined by four parameter non-linear curve fit after plotting compound concentration versus fluorescence intensity, and is given as the concentration of test compound that gives a response (inhibition of cell growth) half way between the top and bottom plateau of the sigmoidal concentration-response curve (i.e. the inflection point of the curve).

[2] = test system: PXF 698L; test: modified propidium iodide cytotoxicity assay; conditions: Homo sapiens, Mesothelioma
Source text: as §1

[3] = test system: MCF-7; test: modified propidium iodide cytotoxicity assay; conditions: Homo sapiens, MCF7, Breast
Source text: as §1

[4] = test system: BXF 1218L; test: modified propidium iodide cytotoxicity assay; conditions: Homo sapiens, Bladder
Source text: as §1

[5] = test system: PANC-1; test: modified propidium iodide cytotoxicity assay; conditions: Homo sapiens, Pancreas
Source text: as §1

[6] = test system: PAXF 546L; test: modified propidium iodide cytotoxicity assay; conditions: Homo sapiens, Pancreas
Source text: as §1

[7] = test system: LNCaP; test: modified propidium iodide cytotoxicity assay; conditions: Homo sapiens, Prostate
Source text: as §1

[8] = test system: CXF 269L; test: modified propidium iodide cytotoxicity assay; conditions: Homo sapiens, Colon
Source text: as §1

[9] = test system: PAXF 1657L; test: modified propidium iodide cytotoxicity assay; conditions: Homo sapiens, Pancreas
Source text: as §1

[10] = test system: RXF 486L; test: modified propidium iodide cytotoxicity assay; conditions: Homo sapiens, Kidney
Source text: as §1

[11] = test system: OVXF 899L; test: modified propidium iodide cytotoxicity assay; conditions: Homo sapiens, Ovary
Source text: as §1

[12] = test system: MEXF 276L; test: modified propidium iodide cytotoxicity assay; conditions: Homo sapiens, MEXF276L, Melanoma
Source text: as §1

[13] = test system: PC-3M; test: modified propidium iodide cytotoxicity assay; conditions: Homo sapiens, Prostate
Source text: as §1

[14] = test system: 22Rv1; test: modified propidium iodide cytotoxicity assay; conditions: Homo sapiens, Prostate
Source text: as §1

[15] = test system: PXF 1118L; test: modified propidium iodide cytotoxicity assay; conditions: Homo sapiens, Mesothelioma
Source text: as §1

[16] = test system: NCI-H460; test: modified propidium iodide cytotoxicity assay; conditions: Homo sapiens, Lung, non-small cell
Source text: as §1

[17] = test system: PXF 1752L; test: modified propidium iodide cytotoxicity assay; conditions: Homo sapiens, Mesothelioma
Source text: as §1

[18] = test system: LXFL 529L; test: modified propidium iodide cytotoxicity assay; conditions: Homo sapiens, Lung, non-small cell
Source text: as §1

[19] = test system: CAL-27; test: modified propidium iodide cytotoxicity assay; conditions: Homo sapiens, Head and neck
Source text: as §1

[20] = test system: DIFI; test: modified propidium iodide cytotoxicity assay; conditions: Homo sapiens, Colon
Source text: as §1

[21] = test system: HCT-116; test: modified propidium iodide cytotoxicity assay; conditions: Homo sapiens, Colon
Source text: as §1

[22] = test system: LXFA 526L; test: modified propidium iodide cytotoxicity assay; conditions: Homo sapiens, Lung, non-small cell
Source text: as §1

[23] = test system: MKN45; test: modified propidium iodide cytotoxicity assay; conditions: Homo sapiens, MKN-45, Stomach
Source text: as §1

[24] = test system: RKO; test: modified propidium iodide cytotoxicity assay; conditions: Homo sapiens, Colon
Source text: as §1

[25] = test system: LXFL1121L; test: modified propidium iodide cytotoxicity assay; conditions: Homo sapiens, LXFL 1121L, Lung, non-small cell
Source text: as §1

[26] = test system: BXF 1352L; test: modified propidium iodide cytotoxicity assay; conditions: Homo sapiens, Bladder
Source text: as §1

[27] = test system: DU-145; test: modified propidium iodide cytotoxicity assay; conditions: Homo sapiens, Prostate
Source text: as §1

[28] = test system: GXF 251L; test: modified propidium iodide cytotoxicity assay; conditions: Homo sapiens, Stomach
Source text: as §1

[29] = test system: MAXF 401NL; test: modified propidium iodide cytotoxicity assay; conditions: Homo sapiens, Breast
Source text: as §1

[30] = test system: LXFA 629L; test: modified propidium iodide cytotoxicity assay; conditions: Homo sapiens, Lung, non-small cell
Source text: as §1

[31] = test system: NIH:OVCAR-3; test: modified propidium iodide cytotoxicity assay; conditions: Homo sapiens, Ovary
Source text: as §1

[32] = test system: UXF 1138L; test: modified propidium iodide cytotoxicity assay; conditions: Homo sapiens, Uterus
Source text: as §1

[33] = test system: MEXF 462NL; test: modified propidium iodide cytotoxicity assay; conditions: Homo sapiens, Melanoma
Source text: as §1

[34] = test system: HT-29; test: modified propidium iodide cytotoxicity assay; conditions: Homo sapiens, Colon
Source text: as §1

[35] = test system: RXF 1781L; test: modified propidium iodide cytotoxicity assay; conditions: Homo sapiens, Kidney
Source text: as §1

[36] = test system: Saos-2; test: modified propidium iodide cytotoxicity assay; conditions: Homo sapiens, Sarcoma
Source text: as §1

[37] = test system: LIXF 575L; test: modified propidium iodide cytotoxicity assay; conditions: Homo sapiens, Liver
Source text: as §1

[38] = test system: MDA-MB-231; test: modified propidium iodide cytotoxicity assay; conditions: Homo sapiens, Breast
Source text: as §1

[39] = test system: LXFA 289L; test: modified propidium iodide cytotoxicity assay; conditions: Homo sapiens, Lung, non-small cell
Source text: as §1

[40] = test system: TE671; test: modified propidium iodide cytotoxicity assay; conditions: Homo sapiens, TE-671, Sarcoma
Source text: as §1

[41] = test system: RXF 393NL; test: modified propidium iodide cytotoxicity assay; conditions: Homo sapiens, Kidney
Source text: as §1

[42] = test system: Mycobacerium vaccae; test: antimicrobial activity test; conditions: at a concentration of 1.0 mg/mL
[43] = test system: Staphylococcus aureus; test: antimicrobial activity test; conditions: at a concentration of 1.0 mg/mL
[44] = test system: Escherichia coli; test: antimicrobial activity test; conditions: at a concentration of 1.0 mg/mL
[45] = test system: panel of 42 human tumor cell lines; test: modified propidium iodide cytotoxicity assay, panel of 42 human tumor cell lines; conditions: for IC50: mean over panel of 42 tumor cell lines, 15 histotypes; for IC50 values in sensitive cell lines, fold lower than the mean IC50 of all cell lines tested: on average, sensitive cell lines versus all cell lines
Source text: as §1

[46] = test system: Enterococcus faecalis; test: antimicrobial activity test; conditions: at a concentration of 1.0 mg/mL
[47] = test system: Bacillus subtilis; test: antimicrobial activity test; conditions: at a concentration of 1.0 mg/mL
[48] = test system: panel of 12 human tumor cell lines; test: modified propidium iodide cytotoxicity assay, panel of 12 human tumor cell lines; conditions: for IC50: geometric mean over panel of 12 human tumor cell lines, read-out: Cytotoxic potency (geometric mean IC50)
Source text: as §1

[49] = test system: Pseudomonas aeruginosa; test: antimicrobial activity test; conditions: at a concentration of 1.0 mg/mL
[50] = test system: T-24; test: modified propidium iodide cytotoxicity assay; conditions: Homo sapiens, Bladder
Source text: as §1

Compound: CCCCCCCCCCCC/C=C\N(NC(=O)COC)C(=O)CCCCCCCCC [Hydrazidomycin A, hydrazidomycin A]
- IC50 [1]: 0.936 µM
- IC50 [2]: 0.982 µM
- IC50 [3]: 0.782 µM
- IC50 [4]: 2.43 µM
- IC50 [5]: 0.933 µM
- IC50 [6]: 0.66 µM
- IC50 [7]: 0.957 µM
- IC50 [8]: 0.222 µM
- IC50 [9]: 1.91 µM
- IC50 [10]: 1.62 µM
- IC50 [11]: 1.34 µM
- IC50 [12]: 1.59 µM
- IC50 [13]: 105 nM
- IC50 [14]: 0.882 µM
- IC50 [15]: 2.4 µM
- IC50 [16]: 2.31 µM
- IC50 [17]: 1.19 µM
- IC50 [18]: 2.12 µM
- IC50 [19]: 0.716 µM
- IC50 [20]: 0.782 µM
- IC50 [21]: 0.758 µM
- IC50 [22]: 1.65 µM
- IC50 [23]: 0.676 µM
- IC50 [24]: 0.598 µM
- IC50 [25]: 2.31 µM
- IC50 [26]: 2.3 µM
- IC50 [27]: 0.539 µM
- IC50 [28]: 144 nM
- IC50 [29]: 471 nM
- IC50 [30]: 247 nM
- IC50 [31]: 1.1 µM
- IC50 [32]: 0.893 µM
- IC50 [33]: 0.765 µM
- IC50 [34]: 0.464 µM
- IC50 [35]: 0.982 µM
- IC50 [36]: 1.82 µM
- IC50 [37]: 0.349 µM
- IC50 [38]: 286 nM
- IC50 [39]: 1.1 µM
- IC50 [40]: 0.898 µM
- IC50 [41]: 1.11 µM
- antimicrobial activity [42]: no antimicrobial activity
- antimicrobial activity [43]: no antimicrobial activity
- antimicrobial activity [44]: no antimicrobial activity
- IC50 ([45]; Homo sapiens): 860 nM
- IC50 ([45]; listed as (II)): 857 nM
- IC50 values in sensitive cell lines, fold lower than the mean IC50 of all cell lines tested [45]: about 4 fold
- antimicrobial activity [46]: no antimicrobial activity
- antimicrobial activity [47]: no antimicrobial activity
- IC50 [48]: 0.37 µM
- antimicrobial activity [49]: no antimicrobial activity

Compound: CCCCCCC/C=C\CCCCC/C=C\N(NC(=O)COC)C(=O)CCCCCCCCC [Hydrazidomycin B, hydrazidomycin B]
- IC50 [1]: 14.9 µM
- IC50 [2]: 14.3 µM
- IC50 [3]: 11 µM
- IC50 [4]: 19.3 µM
- IC50 [5]: 10 µM
- IC50 [6]: 10.8 µM
- IC50 [7]: 14.1 µM
- IC50 [8]: 5.94 µM
- IC50 [50]: 9.19 µM
- IC50 [9]: 20.4 µM
- IC50 [10]: 21.2 µM
- IC50 [11]: 19.1 µM
- IC50 [12]: 18.3 µM
- IC50 [13]: 1730 nM
- IC50 [14]: 15.6 µM
- IC50 [15]: 30 µM
- IC50 [16]: 17.2 µM
- IC50 [17]: 12.7 µM
- IC50 [18]: 17.3 µM
- IC50 [19]: 12.7 µM
- IC50 [20]: 10.2 µM
- IC50 [21]: 19.4 µM
- IC50 [22]: 7.07 µM
- IC50 [23]: 11.6 µM
- IC50 [24]: 13.8 µM
- IC50 [25]: 17.4 µM
- IC50 [26]: 15.1 µM
- IC50 [27]: 7.22 µM
- IC50 [28]: 1540 nM
- IC50 [29]: 876 nM
- IC50 [30]: 1410 nM
- IC50 [31]: 18.5 µM
- IC50 [32]: 18.2 µM
- IC50 [33]: 20.4 µM
- IC50 [34]: 6.54 µM
- IC50 [35]: 10.2 µM
- IC50 [36]: 18 µM
- IC50 [37]: 7.39 µM
- IC50 [38]: 5530 nM
- IC50 [39]: 12.6 µM
- IC50 [40]: 18.2 µM
- IC50 [41]: 11 µM
- antimicrobial activity [42]: no antimicrobial activity
- antimicrobial activity [43]: no antimicrobial activity
- antimicrobial activity [44]: no antimicrobial activity
- IC50 ([45]; Homo sapiens): 10700 nM
- IC50 values in sensitive cell lines, fold lower than the mean IC50 of all cell lines tested [45]: ~8 fold
- antimicrobial activity [46]: no antimicrobial activity
- antimicrobial activity [47]: no antimicrobial activity
- IC50 [48]: 6.04 µM
- antimicrobial activity [49]: no antimicrobial activity

Compound: CCCCC/C=C\C/C=C\CCCC/C=C\N(NC(=O)COC)C(=O)CCCCCCCCC [Hydrazidomycin C, hydrazidomycin C]
- antimicrobial activity [42]: no antimicrobial activity
- antimicrobial activity [43]: no antimicrobial activity
- antimicrobial activity [44]: no antimicrobial activity
- antimicrobial activity [46]: no antimicrobial activity
- antimicrobial activity [47]: no antimicrobial activity
- IC50 [48]: > 10 µM
- inhibition of tumor cell growth ([48]; up to a concentration of 10 µM): did not show inhibition of tumor cell growth
- antimicrobial activity [49]: no antimicrobial activity
